Laboratory results: patent publication US6441195B1, “Substituted sulphonylamino(thio) carbonyl compounds” (Bayer Aktiengesellschaft, priority 1995, dated 2002)

Columns and labels:
Assay type in all cases: in vivo
weeds = assay: Pre-emergence test (greenhouse), activity against weeds; conditions: in words
Method in brief: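 Compound formulated in acetone with alkylaryl polyglycol ether emulsifier, diluted in water, and watered onto soil about 24 h after sowing, dosed by application rate per unit area. Damage rated after three weeks as % versus untreated control (0% = no action).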

Poa = assay: Pre-emergence test/Greenhouse, Poa; conditions: after three weeks
Method in brief: (§1)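 In this greenhouse test the application rate per unit area, not the concentration of the preparation, defines the dose; the emulsified preparation is applied to soil about 24 h post-sowing. Plants are scored for % damage versus untreated control after three weeks.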

Lolium = assay: Pre-emergence test/Greenhouse, Lolium; conditions: after three weeks
Method in brief: as §1

Maize = assay: Pre-emergence test/Greenhouse, Maize; conditions: in vivo
Method in brief: as §1

Soya beans = assay: Pre-emergence test/Greenhouse, Soya beans; conditions: in vivo
Method in brief: as §1

Matricaria = assay: Pre-emergence test/Greenhouse, Matricaria; conditions: after three weeks
Method in brief: as §1

Ambrosia = assay: Pre-emergence test/Greenhouse, Ambrosia; conditions: after three weeks
Method in brief: as §1

Sorghum = assay: Pre-emergence test/Greenhouse, Sorghum; conditions: after three weeks
Method in brief: as §1

Solanum = assay: Pre-emergence test/Greenhouse, Solanum; conditions: after three weeks
Method in brief: as §1

Compound	activity against weeds (weeds)	degree of damage to the plants (% damage vs untreated control), Poa (Poa; 60 g of ai./ha) [%]	degree of damage to the plants (% damage vs untreated control), Lolium (Lolium; 60 g of ai./ha) [%]	degree of damage to the plants (% damage vs untreated control), Maize (Maize) [%]	degree of damage to the plants (% damage vs untreated control), Soya beans (Soya beans) [%]	degree of damage to the plants (% damage vs untreated control), Matricaria (Matricaria; 60 g of ai./ha) [%]	degree of damage to the plants (% damage vs untreated control), Ambrosia (Ambrosia; 60 g of ai./ha) [%]	degree of damage to the plants (% damage vs untreated control), Sorghum (Sorghum; 60 g of ai./ha) [%]	degree of damage to the plants (% damage vs untreated control), Solanum (Solanum; 60 g of ai./ha) [%]	degree of damage to the plants (% damage vs untreated control), Poa (Poa; 125 g of ai./ha) [%]	degree of damage to the plants (% damage vs untreated control), Lolium (Lolium; 125 g of ai./ha) [%]	degree of damage to the plants (% damage vs untreated control), Matricaria (Matricaria; 125 g of ai./ha) [%]	degree of damage to the plants (% damage vs untreated control), Ambrosia (Ambrosia; 125 g of ai./ha) [%]	degree of damage to the plants (% damage vs untreated control), Sorghum (Sorghum; 125 g of ai./ha) [%]	degree of damage to the plants (% damage vs untreated control), Solanum (Solanum; 125 g of ai./ha) [%]
COC(=O)c1cccc(C)c1S(=O)(=O)NC(=O)n1nc(SC)n(OC)c1=O [Example 156]	very strong activity against weeds	90	70	0	10	95	70	70	70	–	–	–	–	–	–
CCSc1nn(C(=O)NS(=O)(=O)c2c(C)cccc2C(=O)OC)c(=O)n1OC [Example 157]	very strong activity against weeds	80	90	0	20	100	95	80	90	–	–	–	–	–	–
CCOC(=O)c1scc(C)c1S(=O)(=O)NC(=O)n1nc(C(C)C)n(C)c1=O [Example 68]	very strong activity against weeds	–	–	5	10	–	–	–	–	90	80	100	95	60	95
CCCOC(=O)c1cccc(C)c1S(=O)(=O)NC(=O)n1nc(OC)n(C)c1=O [Example 20]	very strong activity against weeds	–	–	10	0	–	–	–	–	95	95	95	95	90	95
COC(=O)c1cccc(C)c1S(=O)(=O)NC(=O)n1nc(SCC(F)(F)F)n(C2CC2)c1=O [Example 149]	very strong activity against weeds	–	–	0	30	–	–	–	–	95	95	95	95	80	95
CSc1nn(C(=O)NS(=O)(=O)c2c(C)cccc2C(=O)OC(C)C)c(=O)n1C [Example 8]	very strong activity against weeds	90	95	30	0	95	90	80	95	–	–	–	–	–	–
Cc1cccc(C(=O)OC(C)C)c1S(=O)(=O)NC(=O)n1nc(OC(C)C)n(C)c1=O [Example 18]	very strong activity against weeds	95	80	10	0	95	95	90	95	–	–	–	–	–	–
CCOc1nn(C(=O)NS(=O)(=O)c2c(OC)cccc2C(=O)OC)c(=O)n1C [Example 136]	very strong activity against weeds	–	–	30	20	–	–	–	–	95	95	90	80	90	95
